Source: ChEMBL document CHEMBL4732252, “Generating Selective Leads for Mer Kinase Inhibitors-Example of a Comprehensive Lead-Generation Strategy” (J Med Chem, 2021)

Columns and labels:
Homo sapiens [1] = species: Homo sapiens; test: Selectivity ratio of pIC50 for His6/TEV fused-GST-tagged Flt3 (unknown origin) (H564 to S993 residues) to pIC50 for 6His/thrombin cleavage site-fused Avi-tagged dephosphorylated MER (unknown origin) (R528 to M999 residues)
[2] = biological target: T1, Tyrosine-protein kinase Mer (Homo sapiens) (UniProt Q12866); test: Inhibition of 6His/thrombin cleavage site-fused Avi-tagged dephosphorylated MER (unknown origin) (R528 to M999 residues) at 1 uM using Axltide (CKKSRGDYMTMQJG-acid) peptide as substrate preincubated for 30 mins followed by substrate and ATP addition at Km concentration measured after 120 mins by RapidFire LC-MS analysis relative to control; conditions: time 150.0 min
T1 sequence (whole entry): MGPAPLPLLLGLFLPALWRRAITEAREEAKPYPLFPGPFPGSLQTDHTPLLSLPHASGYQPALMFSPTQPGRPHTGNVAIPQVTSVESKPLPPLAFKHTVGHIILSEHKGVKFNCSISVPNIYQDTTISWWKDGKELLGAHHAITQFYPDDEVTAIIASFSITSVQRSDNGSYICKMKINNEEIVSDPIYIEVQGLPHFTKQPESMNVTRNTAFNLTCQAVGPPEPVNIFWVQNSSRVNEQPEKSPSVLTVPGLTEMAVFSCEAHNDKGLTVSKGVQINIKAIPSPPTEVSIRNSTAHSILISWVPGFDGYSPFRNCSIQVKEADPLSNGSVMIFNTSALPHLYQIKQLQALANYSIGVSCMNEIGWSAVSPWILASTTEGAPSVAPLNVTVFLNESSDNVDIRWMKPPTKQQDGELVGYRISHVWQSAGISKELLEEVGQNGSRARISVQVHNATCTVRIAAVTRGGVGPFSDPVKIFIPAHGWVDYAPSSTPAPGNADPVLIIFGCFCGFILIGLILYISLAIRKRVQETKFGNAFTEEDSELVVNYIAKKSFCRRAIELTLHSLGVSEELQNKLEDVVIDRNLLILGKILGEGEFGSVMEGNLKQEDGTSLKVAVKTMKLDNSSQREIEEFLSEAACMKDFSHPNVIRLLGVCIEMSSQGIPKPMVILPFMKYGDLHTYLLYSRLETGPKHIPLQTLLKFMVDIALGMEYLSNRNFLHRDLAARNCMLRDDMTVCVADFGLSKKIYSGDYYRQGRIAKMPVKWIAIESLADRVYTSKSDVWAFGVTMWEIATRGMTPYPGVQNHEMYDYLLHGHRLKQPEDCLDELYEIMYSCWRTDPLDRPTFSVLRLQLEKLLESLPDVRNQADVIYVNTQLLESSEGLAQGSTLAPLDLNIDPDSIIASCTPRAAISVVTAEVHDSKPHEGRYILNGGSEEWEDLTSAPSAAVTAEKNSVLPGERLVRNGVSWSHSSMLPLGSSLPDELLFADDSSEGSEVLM

Homo sapiens [3] = species: Homo sapiens; test: Selectivity ratio of pIC50 for His6/TEV fused-GST-tagged Flt3 (unknown origin) (H564 to S993 residues) to pIC50 for GST-tagged AXL (unknown origin) ([…] residues)
[4] = biological target: Tyrosine-protein kinase receptor UFO (Homo sapiens) (UniProt P30530); test: Inhibition of GST-tagged AXL (unknown origin) ([…] residues) at 1 uM using Axltide (CKKSRGDYMTMQJG-acid) peptide as substrate preincubated for 30 mins followed by substrate and ATP addition at Km concentration measured after 180 mins by RapidFire LC-MS analysis relative to control; conditions: time 210.0 min
Sequence of Tyrosine-protein kinase receptor UFO (Homo sapiens) (P30530 whole entry): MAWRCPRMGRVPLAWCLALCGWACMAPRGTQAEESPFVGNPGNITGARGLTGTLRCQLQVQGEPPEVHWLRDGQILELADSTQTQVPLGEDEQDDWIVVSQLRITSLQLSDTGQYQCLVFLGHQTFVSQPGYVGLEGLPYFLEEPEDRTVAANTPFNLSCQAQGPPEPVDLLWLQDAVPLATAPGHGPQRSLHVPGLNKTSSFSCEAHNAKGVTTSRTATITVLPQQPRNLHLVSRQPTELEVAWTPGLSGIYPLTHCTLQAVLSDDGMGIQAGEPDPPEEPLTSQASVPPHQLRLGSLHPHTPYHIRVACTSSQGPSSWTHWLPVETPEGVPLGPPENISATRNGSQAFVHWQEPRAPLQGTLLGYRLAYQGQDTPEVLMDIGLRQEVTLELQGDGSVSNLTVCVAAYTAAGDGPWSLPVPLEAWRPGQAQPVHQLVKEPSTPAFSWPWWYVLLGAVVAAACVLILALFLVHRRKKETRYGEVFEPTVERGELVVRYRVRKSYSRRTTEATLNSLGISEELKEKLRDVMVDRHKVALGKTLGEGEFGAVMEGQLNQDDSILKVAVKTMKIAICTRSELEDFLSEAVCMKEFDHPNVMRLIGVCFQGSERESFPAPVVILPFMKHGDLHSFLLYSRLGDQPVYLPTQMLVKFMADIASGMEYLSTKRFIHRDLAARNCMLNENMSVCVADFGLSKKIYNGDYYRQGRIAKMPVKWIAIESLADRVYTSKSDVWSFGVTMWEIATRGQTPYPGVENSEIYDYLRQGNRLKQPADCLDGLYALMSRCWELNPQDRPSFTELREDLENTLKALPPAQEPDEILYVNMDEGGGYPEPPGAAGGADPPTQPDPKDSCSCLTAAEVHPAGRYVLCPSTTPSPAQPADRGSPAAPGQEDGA

Ratio pIC50 (Homo sapiens [1]): > 60
inhibition [2]: > 75%
Ratio pIC50 (Homo sapiens [3]): > 60
inhibition [4]: > 75%
Compound: CNC(=O)c1sc(N2CC3CC2(CNC(=O)c2c[nH]c4ncc(Cl)cc24)C3)nc1C(F)(F)F
